Among the data in BindingDB's records for doi:10.1016/j.ejmech.2019.112028 (Hunan Agricultural University, 2020) are IC50 values, retold here.

pIC50: −log10 of the molar value.

Data set [1] can be described thus: Potentiation of amphotericin-induced cytotoxicity against human DU-145 cells over expressing CYP1B1 assessed as reversal of CYP1B1 mediated drug resistance at 5 uM after 48 hrs by MTT assay (Rvb = 43.25 +/- 1.7 nM).
Data set [2] can be described thus: Potentiation of amphotericin-induced cytotoxicity against human DU-145 cells over expressing CYP1B1 assessed as reversal of CYP1B1 mediated drug resistance at 1 uM after 48 hrs by MTT assay (Rvb = 43.25 +/- 1.7 nM). For orientation: Tetrazolium dyes change colour on reduction, which living cells bring about.

As to `COc1ccc(OC)c2c1c(OC)cc1c(=O)cc(-c3ccc(-c4cn(CCCCCCCCOc5cccc6c5C(=O)N(C5CCC(=O)NC5=O)C6=O)nn4)cc3)oc12` (centres undefined), the pIC50 in data set [1] was 7.43.
Regarding `COc1ccc(OC)c2c1c(OC)cc1c(=O)cc(-c3ccc(-c4cn(CCCCCCOc5cccc6c5C(=O)N(C5CCC(=O)NC5=O)C6=O)nn4)cc3)oc12` (centres undefined), the pIC50 in data set [1] was 8.15.
On to `COc1ccc(OC)c2c1c(OC)cc1c(=O)cc(-c3ccc(-c4cn(CCCCCOc5cccc6c5C(=O)N(C5CCC(=O)NC5=O)C6=O)nn4)cc3)oc12` (centres undefined), for which the pIC50 in data set [2] is 7.55.
On to `COc1ccc(OC)c2c1c(OC)cc1c(=O)cc(-c3ccc(-c4cn(CCOc5cccc6c5C(=O)N(C5CCC(=O)NC5=O)C6=O)nn4)cc3)oc12` (centres undefined), for which the pIC50 in data set [1] is 7.62.

The pIC50 is −log10 of the IC50, conventionally taken in molar units.
